What all share (type): physicochemical
The nature of series [1]: In vitro dissolution test in 30 ml MFD solution (Reference Example 5). As for the experimental part:
(§1) Phosphate buffered saline solution (PBS) was prepared comprising 20 mM sodium phosphate, […] potassium phosphate, 87 mM NaCl and 0.2 mM KCl, adjusted to pH 6.5. Four in vitro dissolution tests were performed in 35 mL of the PBS solution at 37°C to test the effectiveness of drug release from the dosage composition of the invention as measured against Controls A, B and C. Drug concentrations over time were determined by periodically withdrawing samples of each of the four solutions, centrifuging the samples for 1 minute at 13,000 rpm to pellet any undissolved drug, sampling the supernate, and analyzing the sample by High Performance Liquid Chromatography (HPLC) to thereby calculate drug concentrations.
(§2) A Model Fasted Duodenum (MFD) solution which mimics the chemical environment in the small intestine was prepared, comprising the PBS solution described in Example 1 mixed with 14.7 mM sodium taurocholic acid and 2.8 mM of 1-palmitoyl-2-oleyl-sn-glycero-3-phosphocholine. Four in vitro dissolution tests were performed in 500 mL of the so-prepared MFD solution to test the effectiveness of drug release from the dosage composition of the invention against Controls D, E and F. The sampling and analysis were carried out as in Example 1.
An MFD solution was prepared as in Example 2. Four in vitro dissolution tests were performed in 30 ml of the MFD solution to test the effectiveness of drug release from the dosage composition of the invention against Controls J, K and L. The sampling and analysis were carried out as in Example 1.

Series [2] can be described thus: In vitro dissolution test in 40 mL PBS solution (Reference Example 3). To be noted: 37°C. As for the experimental part:
as §1
As a control (Control G), tablets were similarly prepared except rather than using the drug/CAP solid dispersion, a mixture of 1 part crystalline drug to 3 parts CAP was used. As a second control (Control H), 26 mg of crystalline drug alone was used. As a third control (Control I), 105.3 mg of the solid dispersion with no erodible matrix was used. In order to determine the drug release profile of the dosage form of the present invention as compared to the controls, in vitro dissolution tests in 40 mL of the PBS solution of Example 1 at 37°C were performed as in Example 1.

Series [3] in a line: In vitro dissolution test in 35 mL PBS solution (Example 1). To be noted: 35 mL PBS pH 6.5, 37°C. The method, then:
as §1

A short description of series [4]: In vitro dissolution test in 500 mL Model Fasted Duodenum (MFD) solution (Example 2). To be noted: 500 mL MFD solution. The method, then: as §1, §2
Series [5] in a line: Water solubility of the drug.

≈ marks a conversion by molar mass, not a printed value.

Turning to `CN[C@H]1CC[C@@H](c2ccc(Cl)c(Cl)c2)c2ccccc21.Cl` (relative stereo) [Control K, (1S-cis)-4-(3,4-dichlorophenyl)-1,2,3,4-tetrahydro-N-methyl-1-napthalenamine hydrochloride], the AUC in series [1] (time 0 min) was found to be 0 µg·min/mL; in series [1] (time 10 min) it was 1073 µg·min/mL; in series [1] (time 20 min), 5459 µg·min/mL; in series [1] (time 40 min), 16706 µg·min/mL; in series [1] (time 90 min) it was 37083 µg·min/mL; in series [1] (time 120 min), 40231 µg·min/mL. Further, the AUC came out at 52796 µg·min/mL in series [1] (time 240 min), 70528 µg·min/mL in series [1] (time 360 min) and 108647 µg·min/mL in series [1] (time 540 min). For the same compound, the “[Drug]” value in series [1] (time 0 min) amounted to 0 µg/mL; in series [1] (time 10 min), 0 µg/mL; in series [1] (time 20 min), 358 µg/mL; in series [1] (time 40 min), 520 µg/mL; in series [1] (time 90 min), 605 µg/mL; in series [1] (time 120 min), 210 µg/mL. Besides, the “[Drug]” value is reported as 130 µg/mL in series [1] (time 240 min), 159 µg/mL in series [1] (time 360 min), 136 µg/mL in series [1] (time 540 min) and 128 µg/mL in series [1] (time 1200 min).

In the case of `O=C(N[C@@H](Cc1ccccc1)[C@@H](O)C(=O)N1C[C@@H](O)[C@@H](O)C1)c1cc2cc(Cl)ccc2[nH]1` [Control H, 5-chloro-1H-indole-2-carboxylic acid [(1S) -benzyl-3-((3R,4S) -dihydroxypyrrolidin-1-yl-) - (2R) -hydroxy-3-oxypropyl]amide], the AUC in series [2] (time 0 min) turned out to be 0 µg·min/mL; in series [2] (time 10 min), 0 µg·min/mL; in series [2] (time 20 min), 323 µg·min/mL; in series [2] (time 40 min) it was 1513 µg·min/mL; in series [2] (time 90 min) it was 3906 µg·min/mL; in series [2] (time 120 min), 9587 µg·min/mL. Moreover, the area under the curve (AUC) in series [2] (time 180 min) was 13186 µg·min/mL; in series [2] (time 240 min) it was 21392 µg·min/mL; in series [2] (time 360 min), 31055 µg·min/mL; in series [2] (time 540 min), 49395 µg·min/mL; in series [2] (time 720 min), 73701 µg·min/mL. Moreover, the “[Drug]” value in series [2] (time 0 min) is on record as 0.0 µg/mL; in series [2] (time 10 min) it was 107.8 µg/mL; in series [2] (time 20 min), 130.1 µg/mL; in series [2] (time 40 min) it was 109.1 µg/mL; in series [2] (time 90 min), 118.1 µg/mL; in series [2] (time 120 min), 121.8 µg/mL. Moreover, the “[Drug]” value in series [2] (time 180 min) turned out to be 151.7 µg/mL; in series [2] (time 240 min) it was 170.4 µg/mL; in series [2] (time 360 min) it was 135.3 µg/mL; in series [2] (time 540 min), 134.8 µg/mL; in series [2] (time 720 min), 168.3 µg/mL.

In the case of `O=C(N[C@@H](Cc1ccccc1)[C@@H](O)C(=O)N1C[C@@H](O)[C@@H](O)C1)c1cc2cc(Cl)ccc2[nH]1` [Control B, 5-chloro-1H-indole-2-carboxylic acid [(1S) -benzyl-3-((3R,4S) -dihydroxypyrrolidin-1-yl-) - (2R) -hydroxy-3-oxypropyl]amide], the exposure (AUC) in series [3] (time 0 min) stood at 0 µg·min/mL; in series [3] (time 4 min), 180 µg·min/mL; in series [3] (time 10 min), 754 µg·min/mL; in series [3] (time 20 min), 1753 µg·min/mL; in series [3] (time 40 min) it was 4402 µg·min/mL; in series [3] (time 90 min), 12252 µg·min/mL. Further, the AUC was 16937 µg·min/mL in series [3] (time 120 min); 25991 µg·min/mL in series [3] (time 180 min); 34362 µg·min/mL in series [3] (time 240 min); 52528 µg·min/mL in series [3] (time 360 min); 80574 µg·min/mL in series [3] (time 525 min); 113346 µg·min/mL in series [3] (time 720 min). In addition, the “[Drug]” value in series [3] (time 0 min) is listed as 0.0 µg/mL; in series [3] (time 4 min), 90.1 µg/mL; in series [3] (time 10 min) it was 101.0 µg/mL; in series [3] (time 20 min) it was 98.8 µg/mL; in series [3] (time 40 min), 166.1 µg/mL; in series [3] (time 90 min), 147.9 µg/mL. Also, the “[Drug]” value in series [3] (time 120 min) is 164.5 µg/mL; in series [3] (time 180 min) it was 137.3 µg/mL; in series [3] (time 240 min), 141.8 µg/mL; in series [3] (time 360 min) it was 161.0 µg/mL; in series [3] (time 525 min) it was 179.0 µg/mL; in series [3] (time 720 min), 157.2 µg/mL.

Take `CON(C)C(=O)C(O)[C@H](Cc1ccccc1)NC(=O)c1cc2cc(Cl)ccc2[nH]1` (stereo in doubt) [Control E, [R-(R*S*)]-5 chloro-N-[2-hydroxy-3-[(methoxymethylamino)-3-oxo-1(phenylmethyl)propyl]propyl]-1H-indole-2-carboxymide]: the AUC is 0 µg·min/mL in series [4] (time 0 min); 21 µg·min/mL in series [4] (time 10 min); 72 µg·min/mL in series [4] (time 20 min); 172 µg·min/mL in series [4] (time 40 min); 795 µg·min/mL in series [4] (time 90 min); 1281 µg·min/mL in series [4] (time 120 min). Besides, the AUC stood at 2219 µg·min/mL in series [4] (time 180 min); 2992 µg·min/mL in series [4] (time 240 min); 4030 µg·min/mL in series [4] (time 360 min); 5756 µg·min/mL in series [4] (time 525 min); 7525 µg·min/mL in series [4] (time 720 min). In addition, the “[Drug]” value in series [4] (time 0 min) was 0.0 µg/mL; in series [4] (time 10 min) it was 6.9 µg/mL; in series [4] (time 20 min), 3.2 µg/mL; in series [4] (time 40 min), 6.8 µg/mL; in series [4] (time 90 min), 18.1 µg/mL; in series [4] (time 120 min) it was 14.3 µg/mL. Further, the “[Drug]” value in series [4] (time 180 min) is listed as 17.0 µg/mL; in series [4] (time 240 min), 8.8 µg/mL; in series [4] (time 360 min) it was 8.5 µg/mL; in series [4] (time 525 min) it was 10.7 µg/mL; in series [4] (time 720 min), 9.0 µg/mL; in series [4] (time 1200 min), 8.0 µg/mL.

In series [5], `CON(C)C(=O)[C@H](O)[C@H](Cc1ccccc1)NC(=O)c1cc2cc(Cl)ccc2[nH]1` [[R-(R*S*)]-5 chloro-N-[2-hydroxy-3-[(methoxymethylamino)-3-oxo-1(phenylmethyl)propyl]propyl]-1H-indole-2-carboxymide] had a solubility of 1 µg/mL (≈ 2.4 µM).

For the compound `CN[C@H]1CC[C@@H](c2ccc(Cl)c(Cl)c2)c2ccccc21.Cl` (relative stereo) [(1S-cis)-4-(3,4-dichlorophenyl)-1,2,3,4-tetrahydro-N-methyl-1-napthalenamine hydrochloride], in series [5], the water solubility is 70 µg/mL.

For the origin of these results see patent publication EP1027887B1, “Matrix controlled release device” (Pfizer Products Inc., priority 1999, dated 2000).
